The values that follow come from BindingDB's records for doi:10.1016/j.bmcl.2013.04.070 (2013).

The experiment has as its target Presenilin-1 (Homo sapiens, UniProt P49768). Briefly: Modulation of human gamma-secretase presenilin-1 subunit expressed in CHO cells coexpressing human APP assessed as decrease in amyloid beta 42 generation after 24 hrs by ELISA. Background: In an ELISA, binding on a coated surface is turned into a signal by an enzyme label.

What is called IC50 is the midpoint of a concentration-inhibition curve.

Regarding `CCCCCCCCOC(=O)C1(C)CCc2c(C)c(OCC(=O)O)c(C)c(C)c2O1` (stereo unspecified), the IC50 turned out to be 31.6 µM.
